Laboratory results published in ChEMBL document CHEMBL1201862, “PubChem BioAssay data set” (2004).
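Step 1: Grow cells in 96-well plates. Step 2: Expose to compound for 48 hours at 5 concentrations. Step 3: Interpolate endpoints linearly; if unreached, use highest concentration. Abbreviation: GI50, concentration required for 50% inhibition of growth.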 Active and inactive are the calls of the source. Rule as the data show it: active = GI50 up to about 1.1 µM and inactive = higher.

How the values were obtained:
Test in all cases: NCI anticancer screen, dose series, 48 h
[1] = test system: HCC 2998
[2] = test system: RXF 393
[3] = test system: OVCAR-3
[4] = test system: OVCAR-5
[5] = test system: SR
[6] = test system: M14
[7] = test system: T47D
[8] = test system: HOP-92
[9] = test system: U-251
[10] = test system: Hs-578T
[11] = test system: K562
[12] = test system: PC-3
[13] = test system: 786-0
[14] = test system: SK-MEL-5
[15] = test system: HT-29
[16] = test system: UO-31
[17] = test system: TK-10
[18] = test system: MCF7
[19] = test system: HL-60
[20] = test system: SK-OV-3

Measured: GI50

O=C(O)/C(=C\c1ccc(O)cc1)c1cccc2ccccc12
inactive: [1] > 100 µM | [2] > 100 µM | [3] 64.4 µM | [4] > 100 µM | [5] > 100 µM | [6] > 100 µM | [7] > 100 µM | [8] > 100 µM | [9] > 100 µM | [10] > 100 µM | [11] > 100 µM | [12] > 100 µM | [13] > 100 µM | [14] > 100 µM | [15] > 100 µM | [16] > 100 µM | [17] > 100 µM

NC(=S)N/N=C1\CCCCc2ccccc21
inactive: [1] > 10 µM | [18] > 10 µM | [2] > 10 µM | [3] > 10 µM | [4] > 10 µM | [5] > 10 µM | [19] > 10 µM | [6] > 10 µM | [7] 4.81 µM | [9] > 10 µM | [11] > 10 µM | [12] > 10 µM | [13] > 10 µM | [15] > 10 µM | [16] > 10 µM | [17] > 10 µM

Clc1cccc(Cl)c1C1SCc2nc3ncccc3n21 (stereo unspecified)
inactive: [1] > 100 µM | [2] > 100 µM | [3] 44.1 µM | [4] > 100 µM | [5] > 100 µM | [19] 60.7 µM | [6] > 100 µM | [20] > 100 µM | [7] > 100 µM | [9] > 100 µM | [10] > 100 µM | [11] 49.5 µM | [12] > 100 µM | [13] > 100 µM | [14] 65.8 µM | [15] > 100 µM | [16] > 100 µM | [17] > 100 µM

O=C(O)c1nc2ccc(C(F)(F)F)cc2nc1Nc1ccc(F)cc1
inactive: [1] 15.7 µM | [18] 23 µM | [2] 14.4 µM | [3] 12.2 µM | [4] 28.4 µM | [5] 12.1 µM | [19] 12.6 µM | [9] 7.38 µM | [10] 36.4 µM | [11] 11.2 µM | [12] 15 µM | [13] 20 µM | [14] 18 µM | [15] 28.1 µM | [16] 12 µM | [17] 36.6 µM

O=c1cc(CC(O)(C(F)(F)Cl)C(F)(F)Cl)[nH]n1-c1ccccc1
inactive: [1] > 100 µM | [18] > 100 µM | [2] > 100 µM | [4] > 100 µM | [5] > 100 µM | [19] > 100 µM | [6] > 100 µM | [20] > 100 µM | [7] 52.6 µM | [8] 20.7 µM | [9] > 100 µM | [10] 15 µM | [11] 92.3 µM | [13] > 100 µM | [14] > 100 µM | [15] > 100 µM | [16] 78.9 µM | [17] > 100 µM

COc1cc(/C=C/C(=O)OC[C@H](Br)[C@H](OC(C)=O)c2ccc3c(c2)OCO3)cc(OC)c1OC
inactive: [1] 80.4 µM | [18] > 100 µM | [2] > 100 µM | [3] > 100 µM | [4] > 100 µM | [5] 48.8 µM | [6] > 100 µM | [20] > 100 µM | [7] 52.5 µM | [8] > 100 µM | [9] > 100 µM | [11] > 100 µM | [12] 86.3 µM | [13] > 100 µM | [14] > 100 µM | [15] > 100 µM | [16] 26 µM | [17] > 100 µM

CC[C@]1(Cc2ccc(OC)c(OC)c2)C2CC(C(=O)OC)ON2O[C@H](OCc2ccccc2)[C@@H]1OC(C)=O (stereo partly specified)
inactive: [1] 39.2 µM | [18] > 100 µM | [2] > 100 µM | [3] > 100 µM | [4] > 100 µM | [5] > 100 µM | [19] 26.1 µM | [6] > 100 µM | [20] > 100 µM | [7] 47 µM | [8] 99.3 µM | [9] > 100 µM | [11] > 100 µM | [12] > 100 µM | [13] > 100 µM | [14] > 100 µM | [15] > 100 µM | [16] > 100 µM | [17] > 100 µM

CCOC(=O)CCN1C(=O)c2ccc(NC(=O)C(=O)O)cc2S1(=O)=O
inactive: [1] > 100 µM | [18] > 100 µM | [3] > 100 µM | [4] > 100 µM | [5] > 100 µM | [19] > 100 µM | [6] > 100 µM | [20] > 100 µM | [8] > 100 µM | [9] > 100 µM | [10] > 100 µM | [11] > 100 µM | [12] > 100 µM | [13] > 100 µM | [14] > 100 µM | [15] > 100 µM | [16] > 100 µM | [17] > 100 µM

COc1cc(/C=C/C(=O)CC(=O)/C=C/c2ccc(OC(=O)CCCCC3CCSS3)c(OC)c2)ccc1OC(=O)CCCCC1CCSS1 (stereo unspecified)
inactive: [18] > 100 µM | [2] > 100 µM | [3] > 100 µM | [4] > 100 µM | [19] > 100 µM | [6] > 100 µM | [20] > 100 µM | [9] > 100 µM | [10] > 100 µM | [11] > 100 µM | [12] > 100 µM | [13] > 100 µM | [14] > 100 µM | [15] > 100 µM | [16] > 100 µM | [17] > 100 µM

Nc1ccc(-c2nc3ccc(F)cc3s2)cc1
inactive: [3] 22.5 µM | [5] 77.3 µM | [6] 36.4 µM | [8] 29.4 µM | [9] 31.4 µM | [10] 20.2 µM | [11] 43.7 µM | [12] 17.2 µM | [13] 35.4 µM | [14] 15.3 µM | [15] 38.2 µM | [16] 26 µM | [17] 26.6 µM

O=C1/C(=C/c2cccc(Cl)c2)CCCc2ccccc21
inactive: [1] 17.2 µM | [18] 6.03 µM | [3] 23.7 µM | [4] 16.5 µM | [5] 11.6 µM | [19] 11.9 µM | [6] 16.3 µM | [20] 45.8 µM | [8] 21.1 µM | [9] 15.8 µM | [10] 15.5 µM | [11] 14.3 µM | [12] 18.3 µM | [13] 17.8 µM | [15] 15.8 µM | [16] 16.1 µM | [17] 18 µM

CCC(=O)OC1=C(c2ccccc2)Sc2ccc(Cl)cc2-n2cccc21
inactive: [1] > 10 µM | [18] 7.21 µM | [2] 3.24 µM | [5] 7.52 µM | [19] 3.95 µM | [6] > 10 µM | [20] > 10 µM | [7] > 10 µM | [8] 5.78 µM | [11] 5.75 µM | [12] > 10 µM | [13] > 10 µM | [14] > 10 µM | [15] 3.78 µM | [17] > 10 µM
